Assay results from patent US6632981B1, “DNA sequences encoding polypeptides having beta-1,3-glucanase activity” (Novartis Finance Corporation, priority 1988, dated 2003).

How the values were obtained:
[1] = test system: chemically regulatable chimeric genes coding for GUS, AHAS or BT; test: Primer extension assay for mRNA of chemically regulatable chimeric genes; type: in vivo; details: callus or regenerated plant material from transgenic plants; level proportional to amount of regulator applied
Procedure: 50 g of total RNA is lyophilized in a 500 l Eppendorf tube. The RNA is resuspended in 30 l of radiolabeled probe solution and heated to 70′ C. for 10 minutes. The tube is slowly cooled to 37° C. and allowed to incubate overnight. Without removing the tube from the 37° C. water bath, 2 l of 10×reverse-transcriptase buffer (500 mM Tris-HCl, pH 7.5, 400 mM KCl, 30 mM MgCl2), 1 l 5 mg/ml bovine serum albumin, 5 l 100 mM dithiothreitol, 5 l 10×dNTPs (10 mM of each dNTP in H2O), 3 l H 20, 2 l RNasin (80 units), and 2 l reverse transcriptase (400 units) are added and the reaction is incubated at 37° C. for 30 minutes. To stop the reaction, 5 l of 3 M sodium acetate, pH 5, and 150 l absolute ethanol are added. The tube is left at −20° C. for 30 minutes, the precipitate is collected by centrifugation, washed with 80% ethanol and allowed to air-dry. The precipitate is resuspended in 10-20 l of loading dye (90% formamide, 0.05% bromophenol blue, 0.05% xylene cyanol, 1 mM EDTA) and the extension products are separated on a 6% sequencing gel (Maniatis, T. et al., supra). Extension products are visualized by autoradiography.
Plant materials induced and harvested as in Examples 140 to 142 are assayed for the induction of mRNA species by the isolation of RNA and the primer extension assay as described in Example 6.
The level of mRNA is proportional to the amount of regulator applied.

[2] = test system: cucumber chitinase protein; test: Cucumber chitinase ELISA in transgenic plants carrying cucumber chitinase genomic constructs after leaf treatment; type: in vivo, tobacco; set-up: key: —: Indicates that sample has no detectable level of chitinase protein
Procedure: Once the transgenic plants are transferred to soil, they are grown 4-5 weeks before treatment. The following solutions are applied to the leaves with sterile paintbrushes:
3. Methyl benzo-1,2,3-thiadiazole-7-carboxylate. The solution is made by resuspending a wettable powder containing a formulation of the chemical with 25% active ingredient in sterile water at a concentration of 1 mg/ml.
4. Methyl 2,6-dichloroisonicotinate, prepared as above. Alternatively, 30 ul of 10 mM sodium phosphate buffer, pH 7.0, or 30 ul of the same buffer containing tobacco mosaic virus (50-100 pfu/30 ul) is applied to the leaves which have been sprinkled with carborundum. The buffers are distributed over the whole treated leaf by gentle rubbing.
The plants are allowed to continue to grow for seven days. The treated leaves are then harvested, frozen in liquid nitrogen and stored at −80° C. until they are assayed.
Frozen leaf tissue is ground in a mortar with a pestle in the presence of liquid nitrogen to produce a fine powder. 0.33 g of each tissue sample is added to 1 ml extraction buffer (50 mM Tris-HCl, pH 8.5, 0.2M 2-mercaptoethanol, 2 mM phenyl methyl sulfonyl fluoride, 2 mM benzamidine, 10 mM epsilon-aminocaproic acid, 1 mM leueptine) and the sample homogenized for one minute with an Ultra Turrax Mixer (shaft #S25N-8G, Tekmar Co. Cincinnati, Ohio). The samples are then centrifuged at 48,000×g for fifteen minutes at 4° C. and the supernatant removed from the pelleted material. The extracts are diluted at least 1:50 in ELISA diluent (101 mM sodium phosphate, pH 7.4, 140 mM sodium chloride, 0.05% Tween 20, 0.02% sodium azide, 1% BSA).
A microtiter plate is coated with monoclonal antibody specific to the cucumber chitinase protein at 2 ug/ml in borate-buffered saline (100 mM boric acid, 25mM sodium borate, 75 mM sodium chloride; pH 8.5) using 50 ul per well. The plate is incubated overnight at 4° C. The plate is washed with ELISA wash buffer (10 mM Tris-HCl, pH 8.0, 0.05% Tween 20, 3 mM sodium azide) and BSA blocking solution (10 mM sodium phosphate, pH 7.4, 140 mM sodium chloride, 0.02% sodium azide, 1% BSA) is added to completely cover each well. Incubation is for at least 30 minutes at room temperature.
The microtiter plate is washed with ELISA wash buffer and 50 ul of extract is added to the appropriate well. 50 ul of each of 10 chitinase protein standards (ranging from 0 ng/ml to 31.64 ng/ml) was also added to the appropriate well and the plate is incubated for two hours at 4° C. The plate is washed with ELISA wash buffer and 50 ul of rabbit polyclonal antibody to the cucumber chitainase protein (diluted 1:15,000 in ELISA diluent) is added to the well and incubated for one hour at 37° C. After washing with ELISA wash buffer, 50 ul of goat anti-rabbit conjugated to alkaline phosphatase (1:500 in ELISA diluent) is added to each well and incubated at 37° C. for one hour. The plate is then washed and 50 ul alkaline phosphatase substrate solution (0.6 mg/ml p-nitrophenyl phosphate in 0.5 mM magnesium chloride and 10% diethanolamine) is added to each well. After a 30 minute incubation at room temperature, 50 ul of 3N sodium hydroxide is added to each well to stop the reaction.
The plate is read at 405 nm and 492 nm on an HP Genenchem ELISA plate reader. The output values are expressed as A(405 nm)-A(492 nm)−0.092 to allow for correction of p-nitrophenyl phosphate as substrate. The chitinase standards for each plate are graphed logarithmically. The amount of chitinase protein in each sample is determined from the standard curve. If the amount of chitinase in any sample is close to the upper limit of the curve, the sample is assayed again at a greater dilution. Final results are expressed in the table below in ug chitinase per gram tissue.

Question: How did the “level of mRNA of the chimeric gene (GUS, AHAS or BT primer), primer extension assay” value [1] turn out when `COC(=O)c1cc(Cl)nc(Cl)c1` [MDCINA, Methyl 2,6-dichloroisonicotinate] was run?
Answer: elevated levels of mRNA

Question: And the “ELISA ASSAY RESULTS (ug chitinase/g tissue)” value (shortened to “ELISA ASSAY RESULTS”) ([2]; line Bam-1 (2001/BamChit), leaves harvested after seven days, water 0.066, buffer —)?
Answer: —

Question: And the “ELISA ASSAY RESULTS” value ([2]; line Bam-3 (2001/BamChit), seven days, water —, buffer —)?
Answer: —

Question: What about the “ELISA ASSAY RESULTS” value ([2]; line Bam-4 (2001/BamChit), seven days, water —, buffer —) of the same molecule?
Answer: —

Question: And the “ELISA ASSAY RESULTS” value ([2]; line Bam-8 (2001/BamChit), seven days, water —, buffer —)?
Answer: —

Question: And the “ELISA ASSAY RESULTS” value ([2]; line Bam-9 (2001/BamChit), seven days, water —, buffer —)?
Answer: —

Question: What about the “ELISA ASSAY RESULTS” value ([2]; line Bam-10 (2001/BamChit), seven days, water 0.059, buffer 0.084) of the same molecule?
Answer: 2.378 ug chitinase/g tissue

Question: What about the “ELISA ASSAY RESULTS” value ([2]; line Bam-12 (2001/BamChit), seven days, water —, buffer —) of the same molecule?
Answer: —

Question: And the “ELISA ASSAY RESULTS” value ([2]; line Bam-14 (2001/BamChit), seven days, water —, buffer —)?
Answer: —

Question: And the “ELISA ASSAY RESULTS” value ([2]; line Bam-15 (2001/BamChit), seven days, water —, buffer —)?
Answer: —

Question: What about the “ELISA ASSAY RESULTS” value ([2]; line Bam-16 (2001/BamChit), seven days, water —, buffer —) of the same molecule?
Answer: 0.864 ug chitinase/g tissue

Question: What about the “ELISA ASSAY RESULTS” value ([2]; line Bam-17 (2001/BamChit), seven days, water —, buffer —) of the same molecule?
Answer: —

Question: And the “ELISA ASSAY RESULTS” value ([2]; line Bam-19 (2001/BamChit), seven days, water —, buffer —)?
Answer: —

Question: What about the “ELISA ASSAY RESULTS” value ([2]; line Bam-21 (2001/BamChit), seven days, water —, buffer —) of the same molecule?
Answer: —

Question: What about the “ELISA ASSAY RESULTS” value ([2]; line Bam-23 (2001/BamChit), seven days, water —, buffer —) of the same molecule?
Answer: —

Question: And the “ELISA ASSAY RESULTS” value ([2]; line Bam-24 (2001/BamChit), seven days, water —, buffer —)?
Answer: —

Question: And the “ELISA ASSAY RESULTS” value ([2]; line Bam-25 (2001/BamChit), seven days, water —, buffer —)?
Answer: —

Question: And the “ELISA ASSAY RESULTS” value ([2]; line Bam-26 (2001/BamChit), seven days, water —, buffer —)?
Answer: —

Question: What about the “ELISA ASSAY RESULTS” value ([2]; line Nco-2 (2001/NcoChit), seven days, water —, buffer —) of the same molecule?
Answer: —

Question: What about the “ELISA ASSAY RESULTS” value ([2]; line Nco-3 (2001/NcoChit), seven days, water —, buffer —) of the same molecule?
Answer: —

Question: What about the “ELISA ASSAY RESULTS” value ([2]; line Nco-5 (2001/NcoChit), seven days, water —, buffer —) of the same molecule?
Answer: —

Question: What about the “ELISA ASSAY RESULTS” value ([2]; line Nco-8 (2001/NcoChit), seven days, water —, buffer —) of the same molecule?
Answer: —

Question: And the “ELISA ASSAY RESULTS” value ([2]; line Nco-9 (2001/NcoChit), seven days, water —, buffer —)?
Answer: —

Question: And the “ELISA ASSAY RESULTS” value ([2]; line Nco-10 (2001/NcoChit), seven days, water —, buffer —)?
Answer: —

Question: And the “ELISA ASSAY RESULTS” value ([2]; line Nco-11 (2001/NcoChit), seven days, water —, buffer —)?
Answer: —

Question: What about the “ELISA ASSAY RESULTS” value ([2]; line Nco-15 (2001/NcoChit), seven days, water —, buffer —) of the same molecule?
Answer: —

Question: And the “ELISA ASSAY RESULTS” value ([2]; line Nco-16 (2001/NcoChit), seven days, water 0.555, buffer 0.566)?
Answer: 0.286 ug chitinase/g tissue

Question: And the “ELISA ASSAY RESULTS” value ([2]; line Nco-17 (2001/NcoChit), seven days, water —, buffer —)?
Answer: —

Question: And the “ELISA ASSAY RESULTS” value ([2]; line Sal-2 (2001/SalChit), seven days, water —, buffer —)?
Answer: —

Question: What about the “ELISA ASSAY RESULTS” value ([2]; line Sal-3 (2001/SalChit), seven days, water —, buffer —) of the same molecule?
Answer: 0.047 ug chitinase/g tissue

Question: And the “ELISA ASSAY RESULTS” value ([2]; line Sal-4 (2001/SalChit), seven days, water —, buffer —)?
Answer: —

Question: What about the “ELISA ASSAY RESULTS” value ([2]; line Sal-5 (2001/SalChit), seven days, water —, buffer —) of the same molecule?
Answer: —

Question: And the “ELISA ASSAY RESULTS” value ([2]; line Sal-7 (2001/SalChit), seven days, water —, buffer —)?
Answer: —

Question: And the “ELISA ASSAY RESULTS” value ([2]; line Sal-8 (2001/SalChit), seven days, water —, buffer —)?
Answer: —

Question: And the “ELISA ASSAY RESULTS” value ([2]; line Sal-9 (2001/SalChit), seven days, water —, buffer —)?
Answer: —

Question: What about the “ELISA ASSAY RESULTS” value ([2]; line Sal-11 (2001/SalChit), seven days, water —, buffer —) of the same molecule?
Answer: —

Question: And the “ELISA ASSAY RESULTS” value ([2]; line Sal-12 (2001/SalChit), seven days, water —, buffer —)?
Answer: —

Question: And the “ELISA ASSAY RESULTS” value ([2]; line Sal-13 (2001/SalChit), seven days, water —, buffer —)?
Answer: —

Question: What about the “ELISA ASSAY RESULTS” value ([2]; line Sal-14 (2001/SalChit), seven days, water —, buffer —) of the same molecule?
Answer: —

Question: And the “ELISA ASSAY RESULTS” value ([2]; line Sal-15 (2001/SalChit), seven days, water —, buffer —)?
Answer: —
